The results in this text go back to the supplement of paper PMC10307832.

The subject of one test is COR-L23. The test is described as follows: relative viability (nuclei count vs DMSO), 5 days (fraction); higher = more cells survive. Conditions: first compound 8 µM. In outline:
(§1)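 Nuclei were stained with Hoechst during a one-step fixation (final 0.05% Triton X-100, 1% formaldehyde, 1 ug/ml Hoechst) carried out 5 days after dosing, then counted on 4× images. The cells, lung cancer lines in 1536-well plates, had been dosed by pin tool the day after seeding with one drug alone or a fixed anchor-drug dose plus five library-drug doses (not always all listed) in √10 steps. Relative viability is the nuclei count in treated wells divided by that in vehicle wells, and each value is the median of duplicate plates.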
As for `CCCCCCCCCCCC1=C(O)C(=O)C=C(O)C1=O` [Embelin] + CC(=O)c1c(C)c2cnc(Nc3ccc(N4CCNCC4)cn3)nc2n(C2CCCC2)c1=O [Palbociclib] (partner 0.5 µM), the relative viability was 0.299.

Another test relates to NCI-H1734. The description is as above. The conditions noted are these: first compound 0.08 µM. A digest of the protocol: as §1
For `CCCCCCCCCCCC1=C(O)C(=O)C=C(O)C1=O` [Embelin] + N=C(N)NC(=N)NCCc1ccccc1 [Phenformin] (partner 250 µM), the relative viability is 0.383.
On the same count and under the same terms, for `CCCCCCCCCCCC1=C(O)C(=O)C=C(O)C1=O` [Embelin] + CCNC(=O)c1noc(-c2cc(C(C)C)c(O)cc2O)c1-c1ccc(CN2CCOCC2)cc1 [Luminespib] (partner 0.01 µM) the value was 0.201.
`CCCCCCCCCCCC1=C(O)C(=O)C=C(O)C1=O` [Embelin] + Cc1nc(Nc2ncc(C(=O)Nc3c(C)cccc3Cl)s2)cc(N2CCN(CCO)CC2)n1 [Dasatinib] (partner 0.075 µM) showed a relative viability of 0.424.
`CCCCCCCCCCCC1=C(O)C(=O)C=C(O)C1=O` [Embelin] + NC(=O)Nc1cc(-c2cccc(F)c2)sc1C(=O)N[C@H]1CCCNC1 [AZD7762] (partner 0.2 µM) came in with a relative viability of 0.587.
Same read-out and setting: for `CCCCCCCCCCCC1=C(O)C(=O)C=C(O)C1=O` [Embelin] + CC(=O)c1c(C)c2cnc(Nc3ccc(N4CCNCC4)cn3)nc2n(C2CCCC2)c1=O [Palbociclib] (partner 0.5 µM) the value was 0.347.

Still in this test, the particulars now being: first compound 0.8 µM.
Consider `CCCCCCCCCCCC1=C(O)C(=O)C=C(O)C1=O` [Embelin] + N=C(N)NC(=N)NCCc1ccccc1 [Phenformin] (partner 250 µM), for which the relative viability was determined as 0.521.
Turning to `CCCCCCCCCCCC1=C(O)C(=O)C=C(O)C1=O` [Embelin] + CCNC(=O)c1noc(-c2cc(C(C)C)c(O)cc2O)c1-c1ccc(CN2CCOCC2)cc1 [Luminespib] (partner 0.01 µM), the relative viability stood at 0.208.
Compound `CCCCCCCCCCCC1=C(O)C(=O)C=C(O)C1=O` [Embelin] + Cc1nc(Nc2ncc(C(=O)Nc3c(C)cccc3Cl)s2)cc(N2CCN(CCO)CC2)n1 [Dasatinib] (partner 0.075 µM) displayed a relative viability of 0.53.
The compound `CCCCCCCCCCCC1=C(O)C(=O)C=C(O)C1=O` [Embelin] + NC(=O)Nc1cc(-c2cccc(F)c2)sc1C(=O)N[C@H]1CCCNC1 [AZD7762] (partner 0.2 µM) yielded a relative viability of 0.692.
As for `CCCCCCCCCCCC1=C(O)C(=O)C=C(O)C1=O` [Embelin] + CC(=O)c1c(C)c2cnc(Nc3ccc(N4CCNCC4)cn3)nc2n(C2CCCC2)c1=O [Palbociclib] (partner 0.5 µM), the relative viability amounted to 0.349.

The test is the same for the next values; noted with them: first compound 2.53 µM.
Regarding `CCCCCCCCCCCC1=C(O)C(=O)C=C(O)C1=O` [Embelin] + N=C(N)NC(=N)NCCc1ccccc1 [Phenformin] (partner 250 µM), the relative viability came out at 0.526.
Same read-out and setting: for `CCCCCCCCCCCC1=C(O)C(=O)C=C(O)C1=O` [Embelin] + CCNC(=O)c1noc(-c2cc(C(C)C)c(O)cc2O)c1-c1ccc(CN2CCOCC2)cc1 [Luminespib] (partner 0.01 µM) the value was 0.208.
`CCCCCCCCCCCC1=C(O)C(=O)C=C(O)C1=O` [Embelin] + Cc1nc(Nc2ncc(C(=O)Nc3c(C)cccc3Cl)s2)cc(N2CCN(CCO)CC2)n1 [Dasatinib] (partner 0.075 µM) returned a relative viability of 0.514.
In turn, `CCCCCCCCCCCC1=C(O)C(=O)C=C(O)C1=O` [Embelin] + NC(=O)Nc1cc(-c2cccc(F)c2)sc1C(=O)N[C@H]1CCCNC1 [AZD7762] (partner 0.2 µM) displayed a relative viability of 0.593.
As to `CCCCCCCCCCCC1=C(O)C(=O)C=C(O)C1=O` [Embelin] + CC(=O)c1c(C)c2cnc(Nc3ccc(N4CCNCC4)cn3)nc2n(C2CCCC2)c1=O [Palbociclib] (partner 0.5 µM), the relative viability stood at 0.392.

The test is the same for the next values; noted with them: first compound 8 µM.
`CCCCCCCCCCCC1=C(O)C(=O)C=C(O)C1=O` [Embelin] + N=C(N)NC(=N)NCCc1ccccc1 [Phenformin] (partner 250 µM) had a relative viability of 0.327.
In turn, `CCCCCCCCCCCC1=C(O)C(=O)C=C(O)C1=O` [Embelin] + CCNC(=O)c1noc(-c2cc(C(C)C)c(O)cc2O)c1-c1ccc(CN2CCOCC2)cc1 [Luminespib] (partner 0.01 µM) returned a relative viability of 0.197.
Same read-out and setting: the figure for `CCCCCCCCCCCC1=C(O)C(=O)C=C(O)C1=O` [Embelin] + Cc1nc(Nc2ncc(C(=O)Nc3c(C)cccc3Cl)s2)cc(N2CCN(CCO)CC2)n1 [Dasatinib] (partner 0.075 µM) is 0.419.
The same measure, in the same setting: for `CCCCCCCCCCCC1=C(O)C(=O)C=C(O)C1=O` [Embelin] + NC(=O)Nc1cc(-c2cccc(F)c2)sc1C(=O)N[C@H]1CCCNC1 [AZD7762] (partner 0.2 µM) the value was 0.622; for `CCCCCCCCCCCC1=C(O)C(=O)C=C(O)C1=O` [Embelin] + CC(=O)c1c(C)c2cnc(Nc3ccc(N4CCNCC4)cn3)nc2n(C2CCCC2)c1=O [Palbociclib] (partner 0.5 µM), 0.346.

The test system of a further test is NCI-H596. The description is as above. The conditions noted are these: first compound 0.08 µM. A digest of the protocol: as §1
The compound `CCCCCCCCCCCC1=C(O)C(=O)C=C(O)C1=O` [Embelin] + N=C(N)NC(=N)NCCc1ccccc1 [Phenformin] (partner 250 µM) came in with a relative viability of 0.743.
Regarding `CCCCCCCCCCCC1=C(O)C(=O)C=C(O)C1=O` [Embelin] + CCNC(=O)c1noc(-c2cc(C(C)C)c(O)cc2O)c1-c1ccc(CN2CCOCC2)cc1 [Luminespib] (partner 0.01 µM), the relative viability was determined as 1.05.
Same read-out and setting: for `CCCCCCCCCCCC1=C(O)C(=O)C=C(O)C1=O` [Embelin] + Cc1nc(Nc2ncc(C(=O)Nc3c(C)cccc3Cl)s2)cc(N2CCN(CCO)CC2)n1 [Dasatinib] (partner 0.075 µM) the value was 0.739; for `CCCCCCCCCCCC1=C(O)C(=O)C=C(O)C1=O` [Embelin] + NC(=O)Nc1cc(-c2cccc(F)c2)sc1C(=O)N[C@H]1CCCNC1 [AZD7762] (partner 0.2 µM), 1.08.

Staying with this test, now noted: first compound 0.8 µM.
Compound `CCCCCCCCCCCC1=C(O)C(=O)C=C(O)C1=O` [Embelin] + N=C(N)NC(=N)NCCc1ccccc1 [Phenformin] (partner 250 µM) had a relative viability of 0.744.
On the same count and under the same terms, for `CCCCCCCCCCCC1=C(O)C(=O)C=C(O)C1=O` [Embelin] + CCNC(=O)c1noc(-c2cc(C(C)C)c(O)cc2O)c1-c1ccc(CN2CCOCC2)cc1 [Luminespib] (partner 0.01 µM) the value was 0.795.
